System: 292921-168-R tumor spheroid viability
Assay: Anticancer human tumor 292921-168-R patient-derived pancreatic carcinoma cell line growth inhibition
Settings: spheroids with HUVEC and MSC; for IC50: curve of first compound; for viability, T/C: stronger effect = lower value
From the text: Multicellular complex tumor spheroid response to DNA repair inhibitors in combination with DNA-damaging drugs
This study explores the anticancer activities of DNA-damaging drugs and inhibitors of DNA damage repair, both as single agents and in combinations. Complex tumor spheroids comprised of malignant cells, endothelial cells and mesenchymal stem cells served as an in vitro model for human solid tumors. This model system incorporates physiologically relevant features and patient-derived or established malignant cell lines with clinically relevant genetic alterations from many tumor types. Twenty-six patient-derived or established malignant cell lines were evaluated representing sarcoma, melanoma, small cell lung cancer (SCLC), non-small cell lung cancer (NSCLC), as well as bladder, ovarian and pancreatic cancers. The concentration ranges selected for each drug and investigational agent were based upon clinically achievable concentrations if the clinical Cmax of the agent was known.
Compounds. The drugs and compounds olaparib (NSC753686), talazoparib (NSC767125), berzosertib (NSC777718), elimusertib (NSC800525), nedisertib (NSC802822), VX-984 (NSC792969), AZD-1390 (NSC803789), temozolomide (NSC362856), topotecan (NSC609699), trabectedin (NSC813783), staurosporine (NSC755774), and gemcitabine (NSC613327) were obtained from the National Cancer Institute (NCI) Developmental Therapeutics Program Chemical Repository. The FDA-approved anticancer drug set is available from the Developmental Therapeutics Program at https://dtp.cancer.gov/organization/dscb/obtaining/available_plates.htm. […] The stock solutions were prepared in dimethyl sulfoxide (DMSO, Sigma-Aldrich, St. Louis, MO, cat. D2650) at 400-fold the tested concentration and stored at -70 degrees C. Prior to their use, the stock solutions were diluted in fresh medium and the final DMSO concentration in the assay was 0.25% (v/v). All drugs and investigational agents were tested over a range starting from a high concentration at or near the clinical Cmax and decreasing in half-log increments. If the clinical Cmax for an agent had not been determined, the highest concentration tested was 10 microM.
Cell Lines. The patient-derived cancer cell (PDC) lines: 156681-154-R-J1-PDC, 283228-195-R-J1-PDC, 287954-098-R-J1-PDC, 292921-168-R-J2-PDC, 349418-098-R-PDC, 425362-245-T-J1-PDC, 556581-035-R-J1-PDC, and BL0293-F563-PDC were received from the NCI Patient-Derived Models Repository (PDMR, https://pdmr.cancer.gov). The established cell lines HS-SY-2 (RRID:CVCL_8719), MPNST, and SYO-1 (RRID:CVCL_7146) were obtained from the Sloan Kettering Institute. The alveolar soft parts sarcoma cell line ASPS-1 (RRID:CVCL_S738) was established at the NCI and grown from internal seed stocks. The following established cell lines were purchased from the American Type Culture Collection (ATCC, Manassas, VA): G-401 (ATCC, cat. CRL-1441, RRID:CVCL_0270), SW982 (ATCC, cat. HTB-93, RRID:CVCL_1734), VA-ES-BJ (ATCC, cat. CRL-2138, RRID:CVCL_1785), NCI-H719 (ATCC, cat. CRL-5837, RRID:CVCL_1582), NCI-H196 (ATCC, cat. CRL-5823, RRID:CVCL_1509), NCI-H841 (ATCC, cat. CRL-5845, RRID:CVCL_1595), NCI-H1618 (ATCC, cat. CRL-5879, RRID:CVCL_1480), NCI-H1876 (ATCC, cat. CRL-5902, RRID:CVCL_1503), DMS 114 (ATCC, cat. CRL-2066; RRID:CVCL_1174), NCI-H211 (ATCC, cat. CRL-5824; RRID:CVCL_1529), and SW 1271 (ATCC, cat. CRL-2177, RRID:CVCL_1716). The small cell lung cancer cell line COR-L88 was purchased from Sigma-Aldrich (cat. 92031917-1VL, RRID:CVCL_1141). The non-small cell lung cancer cell lines NCI-H226 (RRID:CVCL_1544) and NCI-H322M (RRID:CVCL_1557) were established at the NCI and grown from internal seed stocks. Pooled donor human umbilical vein endothelial cells (HUVEC, Lonza, cat. CC-2519) and human mesenchymal stem cells (hMSC, Lonza, cat. PT-2501) were purchased from Lonza (Walkersville, MD).
Cell Culture. All cells were maintained in an incubator at 37 degrees C and 5% CO2 with 95% humidity. […]

[1] = second compound 0.003 µM, first compound 0.0949 µM
[2] = second compound 0.003 µM, first compound 0.3 µM
[3] = second compound 0.003 µM, first compound 0.949 µM
[4] = second compound 0.003 µM, first compound 3 µM
[5] = second compound 0.00949 µM, first compound 0.0949 µM
[6] = second compound 0.00949 µM, first compound 0.3 µM
[7] = second compound 0.00949 µM, first compound 0.949 µM
[8] = second compound 0.00949 µM, first compound 3 µM
[9] = second compound 0.03 µM, first compound 0.0949 µM
[10] = second compound 0.03 µM, first compound 0.3 µM
[11] = second compound 0.03 µM, first compound 0.949 µM
[12] = second compound 0.03 µM, first compound 3 µM
[13] = second compound 0.0949 µM, first compound 0.0949 µM
[14] = second compound 0.0949 µM, first compound 0.3 µM
[15] = second compound 0.0949 µM, first compound 0.949 µM
[16] = second compound 0.0949 µM, first compound 3 µM
[17] = second compound 0.3 µM, first compound 0.0949 µM
[18] = second compound 0.3 µM, first compound 0.3 µM
[19] = second compound 0.3 µM, first compound 0.949 µM
[20] = second compound 0.3 µM, first compound 3 µM
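Also: spheroids exposed to compounds for 7 days.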

| Structure (SMILES) | IC50 (second compound 0.003 µM) [nM] | IC50 (second compound 0.00949 µM) [nM] | IC50 (second compound 0.03 µM) [nM] | IC50 (second compound 0.0949 µM) [nM] | IC50 (second compound 0.3 µM) [nM] | viability, T/C [1] [%] | viability, T/C [2] [%] | viability, T/C [3] [%] | viability, T/C [4] [%] | viability, T/C [5] [%] | viability, T/C [6] [%] | viability, T/C [7] [%] | viability, T/C [8] [%] | viability, T/C [9] [%] | viability, T/C [10] [%] | viability, T/C [11] [%] | viability, T/C [12] [%] | viability, T/C [13] [%] | viability, T/C [14] [%] | viability, T/C [15] [%] | further results |
| --- | --- | --- | --- | --- | --- | --- | --- | --- | --- | --- | --- | --- | --- | --- | --- | --- | --- | --- | --- | --- | --- |
| Cn1ncnc1[C@H]1c2n[nH]c(=O)c3cc(F)cc(c23)N[C@@H]1c1ccc(F)cc1 + CC[C@@]1(O)C(=O)OCc2c1cc1n(c2=O)Cc2cc3c(CN(C)C)c(O)ccc3nc2-1 | 181 | 13.3 | < 9.49 | < 9.49 | < 9.49 | 57.4 | 41 | 31.4 | 12 | 33.8 | 30.1 | 19.5 | 12.9 | 17.4 | 16.9 | 14.5 | 8.5 | 9.81 | 8.52 | 7.84 | viability, T/C (second compound 0.003 µM, first compound 0.00949 µM): 82.7%; viability, T/C (second compound 0.003 µM, first compound 0.03 µM): 73.9%; viability, T/C (second compound 0.00949 µM, first compound 0.00949 µM): 52.6%; viability, T/C (second compound 0.00949 µM, first compound 0.03 µM): 44.7%; viability, T/C (second compound 0.03 µM, first compound 0.00949 µM): 23.6%; viability, T/C (second compound 0.03 µM, first compound 0.03 µM): 21.1%; viability, T/C (second compound 0.0949 µM, first compound 0.00949 µM): 11%; viability, T/C (second compound 0.0949 µM, first compound 0.03 µM): 10.7%; viability, T/C [16]: 5.32%; viability, T/C (second compound 0.3 µM, first compound 0.00949 µM): 4.91%; viability, T/C (second compound 0.3 µM, first compound 0.03 µM): 5.12%; viability, T/C [17]: 4.52%; viability, T/C [18]: 4.48%; viability, T/C [19]: 3.83%; viability, T/C [20]: 2.41% |
| O=C(c1cc(Cc2n[nH]c(=O)c3ccccc23)ccc1F)N1CCN(C(=O)C2CC2)CC1 + CC[C@@]1(O)C(=O)OCc2c1cc1n(c2=O)Cc2cc3c(CN(C)C)c(O)ccc3nc2-1 | 5580 | 3250 | < 94.9 | < 94.9 | < 94.9 | 85.8 | 84.9 | 83.2 | 71.3 | 58.6 | 55 | 58.4 | 51.2 | 22.6 | 22.7 | 20.4 | 19.9 | 10.1 | 11.3 | 11.2 | viability, T/C (second compound 0.003 µM, first compound 9.49 µM): 31.7%; viability, T/C (second compound 0.003 µM, first compound 30 µM): 25.6%; viability, T/C (second compound 0.00949 µM, first compound 9.49 µM): 31.1%; viability, T/C (second compound 0.00949 µM, first compound 30 µM): 23.9%; viability, T/C (second compound 0.03 µM, first compound 9.49 µM): 18.1%; viability, T/C (second compound 0.03 µM, first compound 30 µM): 18.6%; viability, T/C [16]: 10%; viability, T/C (second compound 0.0949 µM, first compound 9.49 µM): 8.85%; viability, T/C (second compound 0.0949 µM, first compound 30 µM): 10.6%; viability, T/C [17]: 4.24%; viability, T/C [18]: 4.06%; viability, T/C [19]: 4.61%; viability, T/C [20]: 4.65%; viability, T/C (second compound 0.3 µM, first compound 9.49 µM): 3.41%; viability, T/C (second compound 0.3 µM, first compound 30 µM): 3.89% |

— PubChem BioAssay AID1845196 (Molecular Pharmacology Branch, DTP, NCI, 2023)
